Source: PubChem BioAssay (NCI)
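Results reflect a 48-hour exposure of cells in 96-well plates to compound at five concentrations. GI50 is the concentration that inhibits growth by half. TGI denotes the concentration required for complete inhibition of growth.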

How the values were obtained:
Experiment in all cases: growth of human tumour cells (NCI), 48 h
786-0 renal = test system: 786-0 renal
A498 renal = test system: A498 renal
A549 NSCLC = test system: A549 NSCLC
ACHN renal = test system: ACHN renal
BT-549 breast = test system: BT-549 breast
CAKI-1 renal = test system: CAKI-1 renal
CCRF-CEM leukemia = test system: CCRF-CEM leukemia
COLO 205 colon = test system: COLO 205 colon
DU-145 prostate = test system: DU-145 prostate
EKVX NSCLC = test system: EKVX NSCLC
HCC-2998 colon = test system: HCC-2998 colon
HCT-116 colon = test system: HCT-116 colon
HCT-15 colon = test system: HCT-15 colon
HL-60(TB) leukemia = test system: HL-60(TB) leukemia
HOP-62 NSCLC = test system: HOP-62 NSCLC
HOP-92 NSCLC = test system: HOP-92 NSCLC
HS 578T breast = test system: HS 578T breast
HT29 colon = test system: HT29 colon
IGROV1 ovarian = test system: IGROV1 ovarian
K-562 leukemia = test system: K-562 leukemia
KM12 colon = test system: KM12 colon
LOX IMVI melanoma = test system: LOX IMVI melanoma
M14 melanoma = test system: M14 melanoma
MALME-3M melanoma = test system: MALME-3M melanoma
MCF7 breast = test system: MCF7 breast
MDA-MB-231 breast = test system: MDA-MB-231 breast
MDA-MB-435 = test system: MDA-MB-435
MOLT-4 leukemia = test system: MOLT-4 leukemia
NCI-H226 lung = test system: NCI-H226 lung
NCI-H23 lung = test system: NCI-H23 lung
NCI-H460 lung = test system: NCI-H460 lung
NCI-H522 lung = test system: NCI-H522 lung
NCI/ADR-RES ovarian = test system: NCI/ADR-RES ovarian
OVCAR-3 ovarian = test system: OVCAR-3 ovarian
OVCAR-4 ovarian = test system: OVCAR-4 ovarian
OVCAR-5 ovarian = test system: OVCAR-5 ovarian
OVCAR-8 ovarian = test system: OVCAR-8 ovarian
PC-3 prostate = test system: PC-3 prostate
RPMI-8226 leukemia = test system: RPMI-8226 leukemia
RXF 393 renal = test system: RXF 393 renal
SF-268 CNS = test system: SF-268 CNS
SF-295 CNS = test system: SF-295 CNS
SF-539 CNS = test system: SF-539 CNS
SK-MEL-2 melanoma = test system: SK-MEL-2 melanoma
SK-MEL-28 melanoma = test system: SK-MEL-28 melanoma
SK-MEL-5 melanoma = test system: SK-MEL-5 melanoma
SK-OV-3 ovarian = test system: SK-OV-3 ovarian
SN12C renal = test system: SN12C renal
SNB-19 CNS = test system: SNB-19 CNS
SNB-75 CNS = test system: SNB-75 CNS
SR leukemia = test system: SR leukemia
SW-620 colon = test system: SW-620 colon
T-47D breast = test system: T-47D breast
TK-10 renal = test system: TK-10 renal
U251 CNS = test system: U251 CNS
UACC-257 melanoma = test system: UACC-257 melanoma
UO-31 renal = test system: UO-31 renal

## CC(C)(O)c1cc(Nc2cc(Oc3cn(C4CC4)nc3C3CCOCC3)ccn2)ccn1
786-0 renal
  GI50: 53.1 µM
  TGI: > 100 µM
A498 renal
  GI50: 63.1 µM
  TGI: > 100 µM
A549 NSCLC
  GI50: > 100 µM
  TGI: > 100 µM
ACHN renal
  GI50: > 100 µM
  TGI: > 100 µM
BT-549 breast
  GI50: 56.7 µM
  TGI: > 100 µM
CAKI-1 renal
  GI50: > 100 µM
  TGI: > 100 µM
CCRF-CEM leukemia
  GI50: > 100 µM
  TGI: > 100 µM
COLO 205 colon
  GI50: 60.9 µM
  TGI: > 100 µM
DU-145 prostate
  GI50: > 100 µM
  TGI: > 100 µM
EKVX NSCLC
  GI50: > 100 µM
  TGI: > 100 µM
HCC-2998 colon
  GI50: > 100 µM
  TGI: > 100 µM
HCT-116 colon
  GI50: 36.2 µM
  TGI: > 100 µM
HCT-15 colon
  GI50: > 100 µM
  TGI: > 100 µM
HL-60(TB) leukemia
  GI50: 27.6 µM
  TGI: > 100 µM
HOP-62 NSCLC
  GI50: > 100 µM
  TGI: > 100 µM
HOP-92 NSCLC
  GI50: 21.3 µM
  TGI: > 100 µM
HS 578T breast
  GI50: 73.8 µM
  TGI: > 100 µM
HT29 colon
  GI50: 68 µM
  TGI: > 100 µM
IGROV1 ovarian
  GI50: 62.4 µM
  TGI: > 100 µM
K-562 leukemia
  GI50: 27.5 µM
  TGI: > 100 µM
KM12 colon
  GI50: > 100 µM
  TGI: > 100 µM
LOX IMVI melanoma
  GI50: 35.1 µM
  TGI: > 100 µM
M14 melanoma
  GI50: 89.1 µM
  TGI: > 100 µM
MALME-3M melanoma
  GI50: > 100 µM
  TGI: > 100 µM
MCF7 breast
  GI50: 35.3 µM
  TGI: > 100 µM
MDA-MB-231 breast
  GI50: 65 µM
  TGI: > 100 µM
MDA-MB-435
  GI50: > 100 µM
  TGI: > 100 µM
MOLT-4 leukemia
  GI50: 91.7 µM
  TGI: > 100 µM
NCI-H226 lung
  GI50: > 100 µM
  TGI: > 100 µM
NCI-H23 lung
  GI50: 34.8 µM
  TGI: > 100 µM
NCI-H460 lung
  GI50: > 100 µM
  TGI: > 100 µM
NCI-H522 lung
  GI50: 52.2 µM
  TGI: > 100 µM
NCI/ADR-RES ovarian
  GI50: > 100 µM
  TGI: > 100 µM
OVCAR-3 ovarian
  GI50: 98.1 µM
  TGI: > 100 µM
OVCAR-4 ovarian
  GI50: > 100 µM
  TGI: > 100 µM
OVCAR-5 ovarian
  GI50: > 100 µM
  TGI: > 100 µM
OVCAR-8 ovarian
  GI50: > 100 µM
  TGI: > 100 µM
PC-3 prostate
  GI50: 88.1 µM
  TGI: > 100 µM
RPMI-8226 leukemia
  GI50: 33.7 µM
  TGI: > 100 µM
RXF 393 renal
  GI50: 68.4 µM
  TGI: > 100 µM
SF-268 CNS
  GI50: > 100 µM
  TGI: > 100 µM
SF-295 CNS
  GI50: 64.3 µM
  TGI: > 100 µM
SF-539 CNS
  GI50: > 100 µM
  TGI: > 100 µM
SK-MEL-2 melanoma
  GI50: > 100 µM
  TGI: > 100 µM
SK-MEL-28 melanoma
  GI50: > 100 µM
  TGI: > 100 µM
SK-MEL-5 melanoma
  GI50: 38.7 µM
  TGI: > 100 µM
SK-OV-3 ovarian
  GI50: > 100 µM
  TGI: > 100 µM
SN12C renal
  GI50: > 100 µM
  TGI: > 100 µM
SNB-19 CNS
  GI50: > 100 µM
  TGI: > 100 µM
SNB-75 CNS
  GI50: 22 µM
  TGI: > 100 µM
SR leukemia
  GI50: > 100 µM
  TGI: > 100 µM
SW-620 colon
  GI50: > 100 µM
  TGI: > 100 µM
T-47D breast
  GI50: 23.6 µM
  TGI: > 100 µM
TK-10 renal
  GI50: 69.8 µM
  TGI: > 100 µM
U251 CNS
  GI50: > 100 µM
  TGI: > 100 µM
UACC-257 melanoma
  GI50: 85.1 µM
  TGI: > 100 µM
UO-31 renal
  GI50: 54 µM
  TGI: > 100 µM
